Reference: article PMC9800739, “Epigenetic drugs in somatostatin type 2 receptor radionuclide theranostics and radiation transcriptomics in mouse pheochromocytoma models” (Theranostics, 2023)
Like-named read-outs stand apart in the source and are kept apart here.

Experiments:
MPC tumors [1] = experiment: Tumor growth of MPC allografts; assay type: in vivo, mouse; conditions: PET cohorts
Protocol: (§1) During anesthesia, animals were continuously warmed at 37°C. […] Animals were sacrificed using CO2 inhalation and cervical dislocation. […]
(§2) 70 1.1 Preparation of epigenetic drugs
(§3) 71 For in vitro application, VPA was freshly dissolved in cell culture medium and added to the
(§4) 72 cells at final concentrations between 10‒5 and 10‒2 mol/L. DAC was dissolved in H2O to obtain
(§5) 73 a 10‒4 mol/L stock solution that was stored at ‒20 °C. For each experiment, aliquots of the DAC
(§6) 74 stock were thawed and added to the cells at final concentrations between 10‒8 and 10‒5 mol/L.
(§7) 75 For in vivo application, VPA was dissolved at 0.26 mol/L in Dulbecco’s phosphate-buffered
(§8) 76 saline. DAC was dissolved at 0.04 mol/L in acetic acid (9.6 mol/L) to obtain a stock solution
(§9) 77 that was further diluted to 6.6×10‒4 mol/L in Dulbecco’s phosphate buffered. […]
(§10) 88 1.3 Tumor volumes in animal cohorts
(§11) 89 Animals with higher initial tumor volume were specifically included in cohorts that received
(§12) 90 epigenetic drugs in order to compensate for the growth-reducing effects of ET and to match
(§13) 91 tumor volumes as closely as possible across cohorts at the time of radiopharmaceutical injection

SSTR2 = conditions: cited from earlier work
Description: HDAC and DNMT inhibitors can have different impacts depending on the cellular background. For example, in QGP-1 cells, DAC induced, but VPA inhibited SSTR2 gene expression.

MTT tumors [2] = experiment: Tumor growth of MTT allografts; assay type: in vivo, mouse; conditions: PET cohorts
Protocol: as §1, §2, §3, §4, §5, §6, §7, §8, §9, §10, §11, §12, §13

MTT tumors [3] = conditions: for SUVmean tumor / SUVmax ratio tumor / muscle / SUVmax tumor / SUVmean ratio tumor / muscle: MTT
Protocol: All animal experiments were carried out according to the guidelines of the German Regulations for Animal Welfare and have been approved by the local Ethical Committee for Animal Experiments. A number of 4×10^6 MPC or MTT cells were re-suspended in 40 µL of Dulbecco's phosphate-buffered saline and injected subcutaneously into the shoulder of 10-15 week-old female nude mice (Rj:NMRI-Foxn1^nu/nu, Janvier Labs, Le Genest-Saint-Isle, France). Prior to imaging procedures, general anesthesia was induced and maintained with inhalation of 10% (v/v) desflurane in 30/10% (v/v) oxygen/air. During anesthesia, animals were continuously warmed at 37°C. Tumor growth was monitored three times per week using caliper measurements. Tumor volume was calculated assuming a tri-axial ellipsoid with the axes a, b, and c using the formula V = π/6×abc. Animals were sacrificed using CO2 inhalation and cervical dislocation.
Preparation of epigenetic drugs is described in Supplemental Information 1.1. Animals received VPA (1.7×10^‒3 mol/kg ≈ 250 mg/kg), DAC ([…] ≈ 1 mg/kg), or a combination of both, in Dulbecco's phosphate buffered saline (200 µL/30 g body weight), delivered as two consecutive intraperitoneal injections in a 72 h-interval. Applied doses were within the epigenetically effective dose range in mice, as reported elsewhere, [41]-[43]. The estimated human equivalent doses corresponded to 20‒30% of the clinically applied tumor-suppressive doses in patients, [45]. Animals in control groups received Dulbecco's phosphate buffered saline only. Multiple independent experiments were performed, always including animals of all treatment groups (Table 1).
Small animal positron emission tomography (PET) was performed using the nanoPET/CT scanner (Mediso Medical Imaging Systems, Budapest, Hungary). […] Recording, binning, framing, and image reconstruction were performed as reported previously. Dynamic imaging was performed for 60 min, static imaging between 40‒60 min after radiotracer injection. With each PET scan, a corresponding CT image was recorded and used for anatomical referencing and attenuation correction. […] Standardized uptake values (SUV) were determined and reported as SUVmean (VOI-averaged) and SUVmax (VOI-maximum). Details on quantitative PET image analysis are provided in Supplemental Information 1.4.
106 (VOIs) were created (40‒60 min frames) applying fixed thresholds for delineation of tumor
107 (30%), muscle (0%), kidneys (25%), and liver (35%). […]

MPC tumors [4] = assay type: in vivo, mouse; conditions: MPC
Protocol: During anesthesia, animals were continuously warmed at 37°C. […] Animals were sacrificed using CO2 inhalation and cervical dislocation.
107 (30%), muscle (0%), kidneys (25%), and liver (35%).
116 attenuation. Images were post-processed and analyzed using ROVER (ABX). Three-
118 kidneys (15%), and liver (25%). […]

## Nc1ncn([C@H]2C[C@H](O)[C@@H](CO)O2)c(=O)n1 [DAC, 5-Aza-2'-deoxycytidine]
MPC tumors [1]; day 0 baseline, mean ± SEM
  Vtumor, ET start: 0.39 ± 0.16 cm3
MPC tumors [1]; day 4, mean ± SEM
  Vtumor, ET start + 4 d: 0.57 ± 0.18 cm3
SSTR2; BON-1 cells, monotherapies and combined application
  SSTR2 expression (effect): increased
SSTR2; QGP-1 cells
  SSTR2 gene expression (effect): induced
MTT tumors [2]; day 0 baseline, mean ± SEM
  Vtumor, ET start: 0.23 ± 0.07 cm3
MTT tumors [2]; day 4, mean ± SEM
  Vtumor, ET start + 4 d: 0.24 ± 0.06 cm3
MTT tumors [3]; MTT tumors, VPA 250 mg/kg, DAC 1 mg/kg, single or combination, i.p. twice at 72 h interval, DAC P < 0.05, combination P < 0.01
  increase of average SUVmean of tumors vs control cohort: 1.7 fold
MTT tumors [3]; [64Cu]Cu-DOTA-TATE, 40‒60 min p.i., day 1 after final ET, control or VPA 250 mg/kg, DAC 1 mg/kg days −3 and 0, mean ± SEM, DAC P < 0.05, VPA+DAC P < 0.001
  SUVmean tumor: 0.88 ± 0.13
MTT tumors [3]; animal 1, 40‒60 min p.i.
  SUVmax ratio tumor / muscle: 4.01
  SUVmax tumor: 0.83
  SUVmean ratio tumor / muscle: 4.91
  SUVmean tumor: 0.38
MTT tumors [3]; animal 2, 40‒60 min p.i.
  SUVmax ratio tumor / muscle: 6.62
  SUVmax tumor: 1.52
  SUVmean ratio tumor / muscle: 7.82
  SUVmean tumor: 0.65
MTT tumors [3]; animal 3, 40‒60 min p.i.
  SUVmax ratio tumor / muscle: 5.31
  SUVmax tumor: 1.66
  SUVmean ratio tumor / muscle: 8.27
  SUVmean tumor: 0.77
MTT tumors [3]; animal 4, 40‒60 min p.i.
  SUVmax ratio tumor / muscle: 11.0
  SUVmax tumor: 2.00
  SUVmean ratio tumor / muscle: 12.6
  SUVmean tumor: 0.80
MTT tumors [3]; animal 5, 40‒60 min p.i.
  SUVmax ratio tumor / muscle: 7.68
  SUVmax tumor: 1.88
  SUVmean ratio tumor / muscle: 11.5
  SUVmean tumor: 0.93
MTT tumors [3]; animal 6, 40‒60 min p.i.
  SUVmax ratio tumor / muscle: 14.7
  SUVmax tumor: 2.71
  SUVmean ratio tumor / muscle: 17.9
  SUVmean tumor: 1.24
MTT tumors [3]; animal 7, 40‒60 min p.i.
  SUVmax ratio tumor / muscle: 18.9
  SUVmax tumor: 2.72
  SUVmean ratio tumor / muscle: 21.3
  SUVmean tumor: 1.37
MTT tumors [3]; as SUVmean, mean ± SEM
  SUVmax ratio tumor / muscle: 9.74 ± 2.05
MTT tumors [3]; as SUVmean, mean ± SEM, DAC P < 0.05
  SUVmean ratio tumor / muscle: 12.1 ± 2.2
MTT tumors [3]; as SUVmean, mean ± SEM, VPA+DAC P < 0.01
  SUVmax tumor: 1.90 ± 0.25
MTT tumors [3]; n = 7 per cohort, threshold control mean + 2×TE
  percentage of MTT responders (SUV): 57%
MPC tumors [4]; [64Cu]Cu-DOTA-TATE, 40‒60 min p.i., day 1 after final ET, control or VPA 250 mg/kg, DAC 1 mg/kg days −3 and 0, mean ± SEM
  SUVmean tumor: 7.38 ± 0.74
MPC tumors [4]; animal 1, 40‒60 min p.i.
  SUVmax ratio tumor / muscle: 57.8
  SUVmax tumor: 11.5
  SUVmean ratio tumor / muscle: 68.2
  SUVmean tumor: 5.09
MPC tumors [4]; animal 2, 40‒60 min p.i.
  SUVmax ratio tumor / muscle: 65.6
  SUVmax tumor: 13.9
  SUVmean ratio tumor / muscle: 96.7
  SUVmean tumor: 6.74
MPC tumors [4]; animal 3, 40‒60 min p.i.
  SUVmax ratio tumor / muscle: 58.7
  SUVmax tumor: 15.3
  SUVmean ratio tumor / muscle: 93.2
  SUVmean tumor: 7.52
MPC tumors [4]; animal 4, 40‒60 min p.i.
  SUVmax ratio tumor / muscle: 69.1
  SUVmax tumor: 15.2
  SUVmean ratio tumor / muscle: 80.6
  SUVmean tumor: 7.99
MPC tumors [4]; animal 5, 40‒60 min p.i.
  SUVmax ratio tumor / muscle: 67.9
  SUVmax tumor: 20.6
  SUVmean ratio tumor / muscle: 104
  SUVmean tumor: 9.57
MPC tumors [4]; as SUVmean, mean ± SEM
  SUVmax ratio tumor / muscle: 63.8 ± 2.35
  SUVmax tumor: 15.3 ± 1.49
  SUVmean ratio tumor / muscle: 88.6 ± 6.39
